Assay results from patent US20210047304A1, “Bromodomain Inhibitors” (AbbVie Inc., priority 2016, published 2021).

These molecules were tested against BRD4 (BDI_K57-E168) (Homo sapiens, UniProt O60885) (assay: TR-FRET bromodomain binding assay, BRD4 BDI).

Ki	Compound
1.81 µM	Cc1cc(F)cc(C)c1Oc1ccc(C(C)(C)O)cc1-c1cn(C)c(=O)cc1O[C@H]1CC[C@H](N2CCNC2=O)CC1 [Example 35, 5-[2-(4-fluoro-2,6-dimethylphenoxy)-5-(2-hydroxypropan-2-yl)phenyl]-1-methyl-4-{[trans-4-(2-oxoimidazolidin-1-yl)cyclohexyl]oxy}pyridin-2(1H)-one]
> 13 µM	Cc1cc(F)cc(C)c1Oc1ccc(C(C)(C)O)cc1-c1cn(C)c(=O)cc1O[C@H]1CC[C@H](N2C(=O)N(C)C3(CC3)C2=O)CC1 [Example 145, 6-[trans-4-({5-[2-(4-fluoro-2,6-dimethylphenoxy)-5-(2-hydroxypropan-2-yl)phenyl]-1-methyl-2-oxo-1,2-dihydropyridin-4-yl}oxy)cyclohexyl]-4-methyl-4,6-diazaspiro[2.4]heptane-5,7-dione]
2.43 µM	CC(=O)C(=O)N[C@H]1CC[C@H](Oc2cc(=O)n(C)cc2-c2cc(C(C)(C)O)ccc2Oc2c(C)cc(F)cc2C)CC1 [Example 56, N-[trans-4-({5-[2-(4-fluoro-2,6-dimethylphenoxy)-5-(2-hydroxypropan-2-yl)phenyl]-1-methyl-2-oxo-1,2-dihydropyridin-4-yl}oxy)cyclohexyl]-2-oxopropanamide]
8.85 µM	COCC(=O)N1CCC(Oc2cc(=O)n(C)cc2-c2cc(C(C)(C)O)cnc2Oc2c(C)cc(F)cc2C)CC1 [Example 26, 2′-(4-fluoro-2,6-dimethylphenoxy)-5′-(2-hydroxypropan-2-yl)-4-{[1-(methoxyacetyl)piperidin-4-yl]oxy}-1-methyl[3,3′-bipyridin]-6(1H)-one]
3.84 µM	Cc1cc(F)cc(C)c1Oc1ccc(C(C)(C)O)cc1-c1cn(C)c(=O)cc1O[C@H]1CC[C@H](N2C(=O)CCC2C)CC1 (relative stereo) [Example 42, 5-[2-(4-fluoro-2,6-dimethylphenoxy)-5-(2-hydroxypropan-2-yl)phenyl]-1-methyl-4-{[trans-4-(2-methyl-5-oxopyrrolidin-1-yl)cyclohexyl]oxy}pyridin-2(1H)-one]
> 13 µM	Cc1cc(F)cc(C)c1Oc1ccc(C(C)(C)O)cc1-c1cn(C)c(=O)cc1O[C@H]1CC[C@H](NC(=O)C2(CNC(=O)OC(C)(C)C)CC2)CC1 [Example 104, tert-butyl [(1-{[trans-4-({5-[2-(4-fluoro-2,6-dimethylphenoxy)-5-(2-hydroxypropan-2-yl)phenyl]-1-methyl-2-oxo-1,2-dihydropyridin-4-yl}oxy)cyclohexyl]carbamoyl}cyclopropyl)methyl]carbamate]
11.2 µM	Cc1cc(F)cc(C)c1Oc1ccc(C(C)(C)O)cc1-c1cn(C)c(=O)cc1O[C@H]1CC[C@H](N2C(=O)NC(C)(C)C2=O)CC1 [Example 140, 3-[trans-4-({5-[2-(4-fluoro-2,6-dimethylphenoxy)-5-(2-hydroxypropan-2-yl)phenyl]-1-methyl-2-oxo-1,2-dihydropyridin-4-yl}oxy)cyclohexyl]-5,5-dimethylimidazolidine-2,4-dione]
> 13 µM	Cc1cc(F)cc(C)c1Oc1ccc(C(C)(C)O)cc1-c1cn(C)c(=O)cc1O[C@H]1CC[C@@H](C(=O)N2CCCC2)CC1 [Example 77, 5-[2-(4-fluoro-2,6-dimethylphenoxy)-5-(2-hydroxypropan-2-yl)phenyl]-1-methyl-4-{[cis-4-(pyrrolidine-1-carbonyl)cyclohexyl]oxy}pyridin-2(1H)-one]
1.91 µM	Cc1cc(F)cc(C)c1Oc1ccc(C(C)(C)O)cc1-c1cn(C)c(=O)cc1O[C@H]1CC[C@H](NC(=O)CC(C)(C)CO)CC1 [Example 118, N-[trans-4-({5-[2-(4-fluoro-2,6-dimethylphenoxy)-5-(2-hydroxypropan-2-yl)phenyl]-1-methyl-2-oxo-1,2-dihydropyridin-4-yl}oxy)cyclohexyl]-4-hydroxy-3,3-dimethylbutanamide]
> 13 µM	CC(=O)N([C@H](C)c1ccc(Oc2c(C)cccc2C)c(-c2cn(C)c(=O)cc2O[C@H]2CC[C@H](NC(=O)C3(C)CC3)CC2)c1)[C@@H](C)c1ccccc1 [Example 116, N-{trans-4-[(5-{5-[(1R)-1-{acetyl[(1S)-1-phenylethyl]amino}ethyl]-2-(2,6-dimethylphenoxy)phenyl}-1-methyl-2-oxo-1,2-dihydropyridin-4-yl)oxy]cyclohexyl}-1-methylcyclopropane-1-carboxamide]
1.14 µM	CC(=O)N(N)[C@H]1CC[C@H](Oc2cc(=O)n(C)cc2-c2cc(C(C)(C)O)ccc2Oc2c(C)cc(F)cc2C)CC1 [Example 98, N-[trans-4-({5-[2-(4-fluoro-2,6-dimethylphenoxy)-5-(2-hydroxypropan-2-yl)phenyl]-1-methyl-2-oxo-1,2-dihydropyridin-4-yl}oxy)cyclohexyl]acetohydrazide]
2.26 µM	CC(=O)N(CCO)[C@H]1CC[C@H](Oc2cc(=O)n(C)cc2-c2cc(C(C)(C)O)ccc2Oc2c(C)cc(F)cc2C)CC1 [Example 54, N-[trans-4-({5-[2-(4-fluoro-2,6-dimethylphenoxy)-5-(2-hydroxypropan-2-yl)phenyl]-1-methyl-2-oxo-1,2-dihydropyridin-4-yl}oxy)cyclohexyl]-N-(2-hydroxyethyl)acetamide]
> 13 µM	CC(=O)NC1CCC(C)(Oc2cc(=O)n(C)cc2-c2cc(C(C)(C)O)ccc2Oc2c(C)cc(F)cc2C)CC1 (stereo not drawn) [Example 84, N-[trans-4-({5-[2-(4-fluoro-2,6-dimethylphenoxy)-5-(2-hydroxypropan-2-yl)phenyl]-1-methyl-2-oxo-1,2-dihydropyridin-4-yl}oxy)-4-methylcyclohexyl]acetamide]
5.86 µM	Cc1cc(F)cc(C)c1Oc1ccc(C(C)(C)O)cc1-c1cn(C)c(=O)cc1O[C@H]1CC[C@H](N2C(=O)[C@@H]3CCCN3C2=O)CC1 [Example 91, (7aS)-2-[trans-4-({5-[2-(4-fluoro-2,6-dimethylphenoxy)-5-(2-hydroxypropan-2-yl)phenyl]-1-methyl-2-oxo-1,2-dihydropyridin-4-yl}oxy)cyclohexyl]tetrahydro-1H-pyrrolo[1,2-c]imidazole-1,3(2H)-dione]
9.88 µM	Cc1cc(F)cc(C)c1Oc1ccc(C(C)(C)O)cc1-c1cn(C)c(=O)cc1O[C@H]1CC[C@H](N2C(=O)CCCC2=O)CC1 [Example 80, 1-[trans-4-({5-[2-(4-fluoro-2,6-dimethylphenoxy)-5-(2-hydroxypropan-2-yl)phenyl]-1-methyl-2-oxo-1,2-dihydropyridin-4-yl}oxy)cyclohexyl]piperidine-2,6-dione]
2.83 µM	CC(=O)N(C)[C@H]1CC[C@H](Oc2cc(=O)n(C)cc2-c2cc(C(C)(C)O)ccc2Oc2c(C)cc(F)cc2C)CC1 [Example 16, N-[trans-4-({5-[2-(4-fluoro-2,6-dimethylphenoxy)-5-(2-hydroxypropan-2-yl)phenyl]-1-methyl-2-oxo-1,2-dihydropyridin-4-yl}oxy)cyclohexyl]-N-methylacetamide]
2.51 µM	Cc1cc(F)cc(C)c1Oc1ccc(C(C)(C)O)cc1-c1cn(C)c(=O)cc1O[C@H]1CC[C@H](N2CCCCCC2=O)CC1 [Example 37, 1-[trans-4-({5-[2-(4-fluoro-2,6-dimethylphenoxy)-5-(2-hydroxypropan-2-yl)phenyl]-1-methyl-2-oxo-1,2-dihydropyridin-4-yl}oxy)cyclohexyl]azepan-2-one]
6.74 µM	Cc1cc(F)cc(C)c1Oc1ccc(C(C)(C)O)cc1-c1cn(C)c(=O)cc1O[C@H]1CC[C@H](N2C(=O)[C@@H](C)N(C)C2=O)CC1 [Example 81, (5R)-3-[trans-4-({5-[2-(4-fluoro-2,6-dimethylphenoxy)-5-(2-hydroxypropan-2-yl)phenyl]-1-methyl-2-oxo-1,2-dihydropyridin-4-yl}oxy)cyclohexyl]-1,5-dimethylimidazolidine-2,4-dione]
1.86 µM	COCCCN(C(=O)C1(C)CC1)[C@H]1CC[C@H](Oc2cc(=O)n(C)cc2-c2cc(C(C)(C)O)ccc2Oc2c(C)cc(F)cc2C)CC1 [Example 65, N-[trans-4-({5-[2-(4-fluoro-2,6-dimethylphenoxy)-5-(2-hydroxypropan-2-yl)phenyl]-1-methyl-2-oxo-1,2-dihydropyridin-4-yl}oxy)cyclohexyl]-N-(3-methoxypropyl)-1-methylcyclopropane-1-carboxamide]
> 13 µM	Cc1cc(F)cc(C)c1Oc1ccc(C(C)(C)O)cc1-c1cn(C)c(=O)cc1O[C@H]1CC[C@@H](C(C)(C)O)CC1 [Example 74, 5-[2-(4-fluoro-2,6-dimethylphenoxy)-5-(2-hydroxypropan-2-yl)phenyl]-4-{[cis-4-(2-hydroxypropan-2-yl)cyclohexyl]oxy}-1-methylpyridin-2(1H)-one]
4 µM	Cc1cc(F)cc(C)c1Oc1ccc(C(C)(C)O)cc1-c1cn(C)c(=O)cc1O[C@H]1CC[C@H](C(N)=O)CC1 [Example 102, trans-4-({5-[2-(4-fluoro-2,6-dimethylphenoxy)-5-(2-hydroxypropan-2-yl)phenyl]-1-methyl-2-oxo-1,2-dihydropyridin-4-yl}oxy)cyclohexane-1-carboxamide]
4.1 µM	COCC1(C(=O)N[C@H]2CC[C@H](Oc3cc(=O)n(C)cc3-c3cc(C(C)(C)O)ccc3Oc3c(C)cc(F)cc3C)CC2)CC1 [Example 70, N-[trans-4-({5-[2-(4-fluoro-2,6-dimethylphenoxy)-5-(2-hydroxypropan-2-yl)phenyl]-1-methyl-2-oxo-1,2-dihydropyridin-4-yl}oxy)cyclohexyl]-1-(methoxymethyl)cyclopropane-1-carboxamide]
4.65 µM	Cc1cc(F)cc(C)c1Oc1ccc(C(C)(C)O)cc1-c1cn(C)c(=O)cc1O[C@H]1CC[C@H](N2C(=O)CN(C)C2=O)CC1 [Example 78, 3-[trans-4-({5-[2-(4-fluoro-2,6-dimethylphenoxy)-5-(2-hydroxypropan-2-yl)phenyl]-1-methyl-2-oxo-1,2-dihydropyridin-4-yl}oxy)cyclohexyl]-1-methylimidazolidine-2,4-dione]
2.03 µM	Cc1cc(F)cc(C)c1Oc1ccc(C(C)(C)O)cc1-c1cn(C)c(=O)cc1O[C@H]1CC[C@H](N2CCOCC2=O)CC1 [Example 40, 4-[trans-4-({5-[2-(4-fluoro-2,6-dimethylphenoxy)-5-(2-hydroxypropan-2-yl)phenyl]-1-methyl-2-oxo-1,2-dihydropyridin-4-yl}oxy)cyclohexyl]morpholin-3-one]
